Data on 25 molecules can be found in patent publication US10030016B2 (Sunesis Pharmaceuticals, Inc., priority 2009, dated 2018).

SMILES strings stand for the structures. Structures can show the parent of a compound that is named as a salt. Where two headings read alike, the source gives them in different places. Where only a bound is given, the exact number is not on record here.

One experiment deals with PDK1 (Homo sapiens (Human), UniProt O15530). Put plainly: PDK1 kinase assay (coupled PDK1/AKT/FAM-crosstide assay, IMAP fluorescence polarization). In kind it is biochemical. The essentials: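 Coupled cascade: 0.75 nM PDK1 (51-359) → 10 nM AKT2 (140-467-PIFtide) → 100 nM FAM-crosstide. ATP 40 μM, 25° C, 30 min. IMAP FP (ex 485/em 530), 2 h binding. ΔmP vs conc, 4-param fit.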
PDK1, sequence (O15530 51-359): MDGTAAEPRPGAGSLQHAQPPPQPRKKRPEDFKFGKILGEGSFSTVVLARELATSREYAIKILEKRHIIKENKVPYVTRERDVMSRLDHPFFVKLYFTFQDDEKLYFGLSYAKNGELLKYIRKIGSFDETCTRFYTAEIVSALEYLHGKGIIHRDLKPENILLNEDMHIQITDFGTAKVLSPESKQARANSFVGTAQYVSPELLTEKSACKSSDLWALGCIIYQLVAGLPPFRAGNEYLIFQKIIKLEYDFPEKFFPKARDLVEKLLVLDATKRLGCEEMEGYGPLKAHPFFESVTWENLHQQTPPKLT
(Polarisation of emitted light reports the rotation of a fluorescent probe.)

The test system of experiment [1] is phospho-akt (Thr308) in PC-3 cells. Put plainly: Inhibition of phospho-akt (Thr308) in PC-3 cells, MSD phospho-akt 308 ELISA kit. In kind it is cell-based. The note with it: Homo sapiens, 2 hours, no serum, read-out: EC50. The essentials: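 Serum-free 2 h compound exposure of overnight-seeded PC-3 cells, threefold dilution series; lysates analysed on blocked MSD plates (3% BSA) for Thr308-phosphorylated Akt, normalised between DMSO and 5 μM wortmannin wells.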

Setting [2] is: inhibition of phospo-PDK1 in vitro.
The mark [3] stands for this setting: inhibition of P308 Akt in PC-3 cells, MSD.
Setting [4] is: inhibition of P308 Akt in PC-3 cells using MSD.

As usually defined, the IC50 is the concentration that gives 50% inhibition. Higher therefore signals lower potency. One may read the EC50 as the concentration giving half of the maximal effect.

For `C[C@H](NC(=O)c1cc(C#N)cnc1N[C@H](CC(=O)O)c1ccc(-c2c[nH]c3ncnc(N)c23)cc1)c1ccc(F)cc1` [Example 45, (R)-3-(4-(4-amino-7H-pyrrolo[2,3-d]pyrimidin-5-yl)phenyl)-3-(5-cyano-3-((S)-1-(4-fluorophenyl)ethylcarbamoyl)pyridin-2-ylamino)propanoic acid], the IC50 on PDK1 (inhibition of PDK1 in vitro) fell in the range of 100 to 1000 nM. Also, in experiment [1] (PC-3, 2 h, inhibition of P308 Akt in PC-3 cells using MSD), the 50% effective concentration (EC50) was greater than 10000 nM.

`Nc1ncnc2ccc(-c3ccc(CNc4nccnc4C(=O)NCc4cccc(F)c4)s3)cc12` [Example 3.73, 3-({[5-(4-aminoquinazolin-6-yl)thiophen-2-yl]methyl}amino)-N-(3-fluorobenzyl) pyrazine-2-carboxamide (TFA salt)] came in with an IC50 on PDK1 (setting [2]) of less than 100 nM. Also, the EC50 in experiment [1] (setting [3]) lay in the range of 1000 to 10000 nM.

Molecule `C[C@H](NC(=O)c1nccnc1NCc1ccc(-c2ccc3ncnc(N)c3c2)s1)c1ccc(F)cc1` [Example 3.70, 3-({[5-(4-aminoquinazolin-6-yl)thiophen-2-yl]methyl}amino)-N-[(1S)-1-(4-fluorophenyl)ethyl] pyrazine-2-carboxamide (TFA salt)] came in with an IC50 on PDK1 (setting [2]) of less than 100 nM. Besides, the EC50 in experiment [1] (setting [3]) was 1000 to 10000 nM.

On PDK1 (inhibition of PDK1 in vitro), `N#Cc1cnc(NCc2ccc(-c3cnc4[nH]nc(N)c4c3)cc2)c(C(=O)Nc2ccc(Cl)cc2)n1` [Example 426, 3-(4-(3-amino-1H-pyrazolo[3,4-b]pyridin-5-yl)benzylamino)-N-(4-chlorophenyl)-6-cyanopyrazine-2-carboxamide] came in with an IC50 of less than 100 nM. In experiment [1] (setting [4]), the EC50 was less than 1000 nM.

At PDK1 (inhibition of PDK1 in vitro), `C[C@H](NC(=O)c1cccnc1Nc1ccc(-c2ccc3ncnc(N)c3c2)s1)c1ccc(F)c(F)c1` [Example 51, (S)-2-(5-(4-aminoquinazolin-6-yl)thiophen-2-ylamino)-N-(1-(3,4-difluorophenyl)ethyl)nicotinamide] showed an IC50 greater than 5000 nM. Moreover, the EC50 in experiment [1] (setting [4]) was greater than 10000 nM.

`C[C@H](NC(=O)c1cc(C#N)cnc1NCc1ccc(-c2cnc(N)c(CCCN(C)C)n2)cc1)c1ccc(F)cc1` [Example 158, (S)-2-(4-(5-amino-6-(3-(dimethylamino)propyl)pyrazin-2-yl)benzylamino)-5-cyano-N-(1-(4-fluorophenyl)ethyl) nicotinamide] gave an IC50 against PDK1 (inhibition of PDK1 in vitro) of less than 100 nM. In addition, in experiment [1] (setting [4]), the EC50 was less than 1000 nM.

With `C[C@H](NC(=O)c1cc(C#N)cnc1NCc1ccc(-c2nn(C)c3ncnc(N)c23)cc1)c1ccc(F)cc1` [Example 98, (S)-2-(4-(4-amino-1-methyl-1H-pyrazolo[3,4-d]pyrimidin-3-yl)benzylamino)-5-cyano-N-(1-(4-fluorophenyl)ethyl)nicotinamide], on PDK1 (inhibition of PDK1 in vitro), the IC50 is less than 100 nM. For the same molecule, the EC50 in experiment [1] (setting [4]) lay within 1000 to 10000 nM.

Turning to `Nc1ccc(-c2ccc(CNc3ncccc3C(=O)NCc3cncc(F)c3)cc2)cn1` [Example 373, 2-(4-(6-aminopyridin-3-yl)benzylamino)-N-((5-fluoropyridin-3-yl)methyl)nicotinamide], the IC50 against PDK1 (inhibition of PDK1 in vitro) was 1000 to 5000 nM. In experiment [1] (setting [4]), the EC50 is 1000 to 10000 nM.

Consider `Nc1ncnc2ccc(-c3ccc(CNc4ncccc4C(=O)NCc4cccnc4)s3)cc12` [Example 3.37, 2-({[5-(4-aminoquinazolin-6-yl)thiophen-2-yl]methyl}amino)-N-(pyridin-3-ylmethyl) pyridine-3-carboxamide (TFA salt)], for which the IC50 at PDK1 (setting [2]) fell in the range of 100 to 1000 nM. Further, in experiment [1] (setting [3]), the EC50 was in the range of 1000 to 10000 nM.

Consider `C[C@H](NC(=O)c1cc(C#N)cnc1NCc1ccc(-c2ccc(N)nc2)cc1F)c1ccc(F)cc1` [Example 128], for which, on PDK1 (inhibition of PDK1 in vitro), the IC50 is less than 100 nM. Besides, in experiment [1] (setting [4]), the EC50 fell in the range of 1000 to 10000 nM.

As to `CC(C)[C@H](NC(=O)c1cccnc1NCc1ccc(-c2ccc3ncnc(N)c3c2)s1)c1cccc(F)c1` [Example 3.44, (S)-2-((5-(4-aminoquinazolin-6-yl)thiophen-2-yl)methylamino)-N-(1-(3-fluorophenyl)-2-methylpropyl)nicotinamide (TFA salt)], the IC50 at PDK1 (setting [2]) is 100 to 1000 nM. In experiment [1] (setting [3]), the EC50 was in the range of 1000 to 10000 nM.

Take `COc1ccnc(NCc2ccc(-c3ccc4ncnc(N)c4c3)s2)c1C(=O)N[C@@H](C)c1ccc(F)cc1` [Ex. 7.6, (S)-2-(((5-(4-aminoquinazolin-6-yl)thiophen-2-yl)methyl)amino)-N-(1-(4-fluoro-phenyl)ethyl)-4-methoxynicotinamide]: on PDK1 (setting [2]), the IC50 was less than 100 nM. The EC50 in experiment [1] (setting [3]) was less than 1000 nM.

Turning to `C[C@H](NC(=O)c1cc(S(C)(=O)=O)cnc1NCc1ccc(-c2ccc3ncnc(N)c3c2)s1)c1ccc(F)cc1` [Example 7.22.2, 2-({[5-(4-aminoquinazolin-6-yl)thiophen-2-yl]methyl}amino)-N-[(1S)-1-(4-fluorophenyl)ethyl]-5-(methylsulfonyl)pyridine-3-carboxamide], on PDK1 (setting [2]), the IC50 fell in the range of 100 to 1000 nM. Besides, in experiment [1] (setting [3]), the EC50 is less than 1000 nM.

On PDK1 (inhibition of PDK1 in vitro), `C[C@H](NC(=O)c1cc(C#N)cnc1NCc1ccc(-c2cnc(N)cn2)c(F)c1)c1ccc(F)cc1` [Example 131, (S)-2-(4-(5-aminopyrazin-2-yl)-3-fluorobenzylamino)-5-cyano-N-(1-(4-fluorophenyl)ethyl) nicotinamide] displayed an IC50 of less than 100 nM. Besides, the EC50 in experiment [1] (setting [4]) fell in the range of 1000 to 10000 nM.

Molecule `Nc1cnc(-c2ccc(CNc3ncc(C(F)(F)F)cc3C(=O)NCc3ccc(F)cc3)cc2)cn1` [Example 383, 2-(4-(5-aminopyrazin-2-yl)benzylamino)-N-(4-fluorobenzyl)-5-(trifluoromethyl)nicotinamide] had an IC50 on PDK1 (inhibition of PDK1 in vitro) of less than 100 nM. The EC50 in experiment [1] (setting [4]) was less than 1000 nM.

In the case of `Nc1n[nH]c2ncc(-c3ccc(CNc4ncc(C(F)(F)F)cc4C(=O)Nc4ccc(C(F)(F)F)nc4)cc3)cc12` [Example 276, 2-(4-(3-amino-1H-pyrazolo [3,4-b]pyridin-5-yl)benzylamino)-5-(trifluoromethyl)-N-(6-(trifluoromethyl)pyridin-3-yl)nicotinamide], at PDK1 (inhibition of PDK1 in vitro), the IC50 is less than 100 nM. The EC50 in experiment [1] (setting [4]) fell in the range of 1000 to 10000 nM.

As to `C[C@H](NC(=O)c1cc(C#N)cnc1NCc1ccc(-c2cnc(N)c(N)c2)cc1)c1ccc(F)cc1` [Example 102, (S)-5-cyano-2-(4-(5,6-diaminopyridin-3-yl)benzylamino)-N-(1-(4-fluorophenyl)ethyl) nicotinamide], at PDK1 (inhibition of PDK1 in vitro), the IC50 is less than 100 nM. The EC50 in experiment [1] (setting [4]) lay within 1000 to 10000 nM.

As for `C[C@H](NC(=O)c1nc(C#N)cnc1NCc1ccc(-c2cn(CCCN(C)C)c3ncnc(N)c23)cc1)c1ccc(F)c(F)c1` [Example 316, (S)-3-(4-(4-amino-7-(3-(dimethylamino)propyl)-7H-pyrrolo[2,3-d]pyrimidin-5-yl)benzylamino)-6-cyano-N-(1-(3,4-difluoro-phenyl)ethyl)pyrazine-2-carboxamide], the IC50 at PDK1 (inhibition of PDK1 in vitro) is less than 100 nM. In experiment [1] (setting [4]), the EC50 lay within 1000 to 10000 nM.

For the molecule `CNS(=O)(=O)c1cnc(NCc2ccc(-c3ccc4ncnc(N)c4c3)s2)c(C(=O)N[C@@H](C)c2ccc(F)c(F)c2)c1` [Example 8.7.4, 2-({[5-(4-aminoquinazolin-6-yl)thiophen-2-yl]methyl}amino)-N-[(1S)-1-(3,4-difluorophenyl)ethyl]-5-(methylsulfamoyl) pyridine-3-carboxamide], at PDK1 (setting [2]), the IC50 was less than 100 nM. In experiment [1] (setting [3]), the EC50 was less than 1000 nM.

On PDK1 (inhibition of PDK1 in vitro), `C[C@H](NC(=O)c1cc(C#N)cnc1NCc1ccc(-c2cnc(N)cn2)cc1)c1ccc(F)cc1` [Example 120, (S)-2-(4-(5-amino-pyrazin-2-yl)benzylamino)-5-cyano-N-(1-(4-fluorophenyl)ethyl) nicotinamide] gave an IC50 of less than 100 nM. Besides, the 50% effective concentration (EC50) in experiment [1] (setting [4]) is less than 1000 nM.

Consider `CC(C)(C)Nc1ncnc2ccc(-c3ccc(CNc4ncccc4C(=O)NCc4ccc(F)c(F)c4)s3)cc12` [Example 4.23, N-(3,4-difluorobenzyl)-2-(((5-(4-(tert-butylamino)quinazolin-6-yl)thiophen-2-yl)methyl)amino) nicotinamide], for which the IC50 on PDK1 (setting [2]) fell in the range of 1000 to 5000 nM. Besides, the EC50 in experiment [1] (setting [3]) is greater than 10000 nM.

`C[C@H](NC(=O)c1cc(C#N)cnc1NCc1ccc(-c2cnc(N)cn2)cc1F)c1ccc(F)cc1` [Example 130, (S)-2-(4-(5-aminopyrazin-2-yl)-2-fluorobenzylamino)-5-cyano-N-(1-(4-fluorophenyl)ethyl) nicotinamide] came in with an IC50 against PDK1 (inhibition of PDK1 in vitro) of less than 100 nM. Moreover, the EC50 in experiment [1] (setting [4]) lay within 1000 to 10000 nM.

`O=C(NCc1ccc(F)c(F)c1)c1cccnc1NCc1ccc(-c2ccc3ncnc(NCCN4CCCC4)c3c2)s1` [Example 4.20, N-(3,4-difluorobenzyl)-2-(((5-(4-(2-(pyrrolidin-1-yl)ethylamino)quinazolin-6-yl)thiophen-2-yl)methyl)amino)nicotinamide] yielded an IC50 on PDK1 (setting [2]) of 100 to 1000 nM. Besides, the EC50 in experiment [1] (setting [3]) was greater than 10000 nM.

`Nc1n[nH]c2ncc(-c3ccc(CNc4ncc(C(F)(F)F)cc4C(=O)Nc4c(F)cc(F)cc4F)cc3)cc12` [Example 278, 2-(4-(3-amino-1H-pyrazolo [3,4-b]pyridin-5-yl)benzylamino)-5-(trifluoromethyl)-N-(2,4,6-trifluorophenyl)nicotinamide]: the IC50 against PDK1 (inhibition of PDK1 in vitro) is less than 100 nM. The half-maximal effective concentration (EC50) in experiment [1] (setting [4]) is less than 1000 nM.

In the case of `C[C@H](NC(=O)c1nc(C#N)cnc1NCc1ccc(-c2cnc3[nH]nc(N(C)C)c3c2)cc1)c1ccc(F)c(F)c1` [Example 62, (S)-6-cyano-N-(1-(3,4-difluorophenyl)ethyl)-3-(4-(3-(dimethylamino)-1H-pyrazolo[3,4-b]pyridin-5-yl)benzylamino)pyrazine-2-carboxamide], the IC50 against PDK1 (inhibition of PDK1 in vitro) is less than 100 nM. Besides, in experiment [1] (setting [4]), the EC50 is less than 1000 nM.
